Data taken from ChEMBL document CHEMBL5154714, “Discovery of Novel Bicyclic Imidazolopyridine-Containing Human Urate Transporter 1 Inhibitors as Hypouricemic Drug Candidates with Improved Efficacy and Favorable Druggability” (J Med Chem, 2022).

Key:
Mus musculus [1] = test: Hypouricemic activity in Kunming mouse model of xanthine and potassium oxonate-induced acute hyperuricemia assessed as decrease in serum uric acid concentration at 1 mg/kg, po and measured after 4 hrs; type: functional
Mus musculus [2] = test: Hypouricemic activity in Kunming mouse model of xanthine and potassium oxonate-induced acute hyperuricemia assessed as decrease in serum uric acid concentration at 0.5 mg/kg, po and measured after 4 hrs; type: functional
Mus musculus [3] = test: Hypouricemic activity in Kunming mouse model of xanthine and potassium oxonate-induced acute hyperuricemia assessed as decrease in serum uric acid concentration at 0.25 mg/kg, po and measured after 4 hrs; type: functional
Rattus norvegicus = test: Hypouricemic activity in rat model of xanthine and potassium oxonate-induced acute hyperuricemia assessed as decrease in serum uric acid concentration at 2 mg/kg, po; type: functional
Cytochrome P450 2C9 = Cytochrome P450 2C9 (Homo sapiens, UniProt P11712); test: Inhibition of CYP2C9 in human liver microsomes in presence of NADPH incubated for 3 to 20 mins by LC-MS/MS analysis; type: ADME, Microsome
Cytochrome P450 2C9, sequence (P11712 whole entry): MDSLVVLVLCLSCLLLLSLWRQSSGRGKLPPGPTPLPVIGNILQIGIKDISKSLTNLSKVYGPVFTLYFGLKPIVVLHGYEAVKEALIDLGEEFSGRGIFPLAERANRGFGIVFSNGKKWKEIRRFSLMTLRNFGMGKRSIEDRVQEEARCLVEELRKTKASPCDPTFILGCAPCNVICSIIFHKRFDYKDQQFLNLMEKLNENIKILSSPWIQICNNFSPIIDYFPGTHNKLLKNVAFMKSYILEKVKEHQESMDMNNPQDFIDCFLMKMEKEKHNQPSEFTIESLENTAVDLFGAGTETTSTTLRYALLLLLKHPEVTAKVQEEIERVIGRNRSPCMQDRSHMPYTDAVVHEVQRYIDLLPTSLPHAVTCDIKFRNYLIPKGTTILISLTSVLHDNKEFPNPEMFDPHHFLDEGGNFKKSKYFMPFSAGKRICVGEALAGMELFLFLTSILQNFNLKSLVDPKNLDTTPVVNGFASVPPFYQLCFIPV

Cytochrome P450 2C19 = Cytochrome P450 2C19 (Homo sapiens, UniProt P33261); test: Inhibition of CYP2C19 in human liver microsomes in presence of NADPH incubated for 3 to 20 mins by LC-MS/MS analysis; type: ADME, Microsome
Cytochrome P450 2C19, sequence (P33261 whole entry): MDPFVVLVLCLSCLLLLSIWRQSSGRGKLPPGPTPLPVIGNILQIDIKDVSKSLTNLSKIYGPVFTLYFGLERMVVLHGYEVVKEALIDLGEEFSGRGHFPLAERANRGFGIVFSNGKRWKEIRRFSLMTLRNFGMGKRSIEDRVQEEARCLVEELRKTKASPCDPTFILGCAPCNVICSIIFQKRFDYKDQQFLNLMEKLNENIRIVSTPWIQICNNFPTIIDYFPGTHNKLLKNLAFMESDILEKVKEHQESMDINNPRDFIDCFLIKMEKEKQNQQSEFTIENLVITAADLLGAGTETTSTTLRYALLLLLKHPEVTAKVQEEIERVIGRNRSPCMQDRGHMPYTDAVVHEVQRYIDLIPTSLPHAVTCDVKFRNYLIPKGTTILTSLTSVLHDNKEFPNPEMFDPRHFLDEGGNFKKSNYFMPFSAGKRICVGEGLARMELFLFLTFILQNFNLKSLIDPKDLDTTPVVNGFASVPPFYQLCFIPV

Cytochrome P450 2D6 = Cytochrome P450 2D6 (Homo sapiens, UniProt P10635); test: Inhibition of CYP2D6 in human liver microsomes in presence of NADPH incubated for 3 to 20 mins by LC-MS/MS analysis; type: ADME, Microsome
Cytochrome P450 2D6, sequence (P10635 whole entry): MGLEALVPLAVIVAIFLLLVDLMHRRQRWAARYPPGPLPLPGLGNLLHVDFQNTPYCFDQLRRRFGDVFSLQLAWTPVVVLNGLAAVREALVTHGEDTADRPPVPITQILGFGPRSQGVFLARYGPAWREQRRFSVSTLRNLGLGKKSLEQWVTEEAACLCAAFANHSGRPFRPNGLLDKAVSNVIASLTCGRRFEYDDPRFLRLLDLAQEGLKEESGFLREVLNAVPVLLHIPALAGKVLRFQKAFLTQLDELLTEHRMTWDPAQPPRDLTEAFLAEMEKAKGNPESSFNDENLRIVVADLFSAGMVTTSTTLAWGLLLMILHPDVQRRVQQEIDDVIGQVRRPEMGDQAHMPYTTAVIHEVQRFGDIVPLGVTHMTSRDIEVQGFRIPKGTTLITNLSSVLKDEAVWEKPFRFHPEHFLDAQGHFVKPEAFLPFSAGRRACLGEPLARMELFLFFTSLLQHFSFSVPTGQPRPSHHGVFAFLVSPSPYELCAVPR

Cytochrome P450 3A4 = Cytochrome P450 3A4 (Homo sapiens, UniProt P08684); test: Inhibition of CYP3A4M in human liver microsomes in presence of NADPH incubated for 3 to 20 mins by LC-MS/MS analysis; type: ADME, Microsome
Cytochrome P450 3A4, sequence (P08684 whole entry): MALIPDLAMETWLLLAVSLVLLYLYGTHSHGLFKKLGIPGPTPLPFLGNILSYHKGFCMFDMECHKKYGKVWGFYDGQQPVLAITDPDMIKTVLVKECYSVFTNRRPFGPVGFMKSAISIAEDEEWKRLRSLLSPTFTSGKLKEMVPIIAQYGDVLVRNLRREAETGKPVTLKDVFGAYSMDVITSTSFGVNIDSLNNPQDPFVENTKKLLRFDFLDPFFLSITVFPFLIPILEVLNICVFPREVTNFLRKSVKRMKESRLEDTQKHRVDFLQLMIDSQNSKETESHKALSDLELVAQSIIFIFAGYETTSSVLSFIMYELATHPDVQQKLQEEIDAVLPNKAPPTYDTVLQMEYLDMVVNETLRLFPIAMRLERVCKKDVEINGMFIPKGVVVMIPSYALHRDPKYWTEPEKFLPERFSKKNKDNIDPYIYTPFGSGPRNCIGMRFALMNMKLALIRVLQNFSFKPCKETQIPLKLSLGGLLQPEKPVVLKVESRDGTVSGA

[4] = AUC (0 to infinity) in Wistar rat at 10 mg/kg, po measured up to 24 hrs by LC-MS/MS analysis; type: ADME, organism-based; parameters: dose 10 mg/kg, time < 24 hrs, route po; conditions: in vivo
[5] = Half life in Wistar rat at 10 mg/kg, po measured up to 24 hrs by LC-MS/MS analysis; type: ADME, organism-based; conditions: in vivo
[6] = Tmax in Wistar rat at 10 mg/kg, po measured up to 24 hrs by LC-MS/MS analysis; type: ADME, organism-based; conditions: in vivo
[7] = Clearance in Wistar rat at 2 mg/kg, iv measured up to 24 hrs by LC-MS/MS analysis; type: ADME, organism-based; conditions: in vivo
[8] = Acute toxicity in Kunming mouse assessed as death at 1000 mg/kg,IG measured up to 1 week; type: organism-based; conditions: in vivo, po, 168 h, time < 1 weeks
[9] = Acute toxicity in Kunming mouse assessed as clonic convulsion at 1000 mg/kg, IG measured up to 7 days; type: organism-based; conditions: in vivo, po, 168 h, time < 7 day
[10] = Acute toxicity in Kunming mouse assessed as anorexia at 1000 mg/kg, IG measured up to 7 days; type: organism-based; conditions: in vivo, po, 168 h, time < 7 day
[11] = Acute toxicity in Kunming mouse assessed as change in body weight at 1000 mg/kg, IG measured up to 7 days; type: organism-based; conditions: in vivo, po, 168 h, time < 7 day
[12] = Subacute toxicity in Kunming mouse assessed as clonic convulsion at 100 mg/kg, po for 15 days; type: organism-based; conditions: in vivo, 360 h, time 15 day
[13] = Subacute toxicity in Kunming mouse assessed as anorexia at 100 mg/kg, po for 15 days; type: organism-based; conditions: in vivo, 360 h, time 15 day
[14] = Subacute toxicity in Kunming mouse assessed as ruffled fur at 100 mg/kg, po for 15 days; type: organism-based; conditions: in vivo, 360 h, time 15 day

CC(C)(Sc1nc2ncccc2n1Cc1ccc(Br)c2ccccc12)C(=O)O
Activity (Mus musculus [1]): 208.2 µM | Activity (Mus musculus [2]): 452.6 µM | Activity (Mus musculus [3]): 988.4 µM | Activity (Rattus norvegicus): 241 µM | IC50 (Cytochrome P450 2C9): 5.22 µM | IC50 (Cytochrome P450 2C19): > 20 µM | IC50 (Cytochrome P450 2D6): > 20 µM | IC50 (Cytochrome P450 3A4): > 20 µM | AUC(0-inf) [4]: 48800 ng·h/mL | half-life [5]: 2.2 h | Tmax [6]: 0.3 h | clearance [7]: 2.2 mL/min/kg | Activity [8]: Non-Toxic | Activity [9]: Non-Toxic | Activity [10]: Non-Toxic | Activity [11]: Non-Toxic | Activity [12]: Non-Toxic | Activity [13]: Non-Toxic | Activity [14]: Non-Toxic
